We go through four molecules from patent US7868020B2, “Quinolynylmethylimidizoles as therapeutic agents” (Allergan, Inc., priority 2007, dated 2011).

A short description of experiment [1]: in vitro assay (not specified) of separated enantiomers. Particulars: enantiomers separated by chiral HPLC. The source says:
Compound (6) was separated by chiral HPLC: […]® OD with 85% hexane and 15% ethanol at rt. The (+)-7-(5-methyl-1H-imidazol-4-ylmethyl)-5,6,7,8-tetrahydro-quinoline (8) corresponding to the second eluting peak was active in an in vitro assay.

A further experiment has as its target T1, Alpha 2B (Homo sapiens, UniProt P18089).
T1 construct: expressed in transfected cells; host or cells: NIH-3T3
T1 sequence (P18089 1-450): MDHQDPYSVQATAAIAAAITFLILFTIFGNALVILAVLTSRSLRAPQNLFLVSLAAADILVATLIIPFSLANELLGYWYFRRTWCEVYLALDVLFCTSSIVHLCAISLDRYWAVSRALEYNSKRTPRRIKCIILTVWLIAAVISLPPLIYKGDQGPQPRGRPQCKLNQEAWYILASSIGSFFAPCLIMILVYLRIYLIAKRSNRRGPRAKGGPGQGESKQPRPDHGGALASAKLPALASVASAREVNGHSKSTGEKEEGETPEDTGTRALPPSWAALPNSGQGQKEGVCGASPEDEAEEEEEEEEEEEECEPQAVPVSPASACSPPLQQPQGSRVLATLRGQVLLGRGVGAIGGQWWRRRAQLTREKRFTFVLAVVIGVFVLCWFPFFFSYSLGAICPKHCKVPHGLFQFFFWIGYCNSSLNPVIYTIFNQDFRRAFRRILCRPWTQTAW
Nature of the experiment: RSAT assay, Alpha 2B receptor. It is filed as cell-based. Particulars: for EC50: RSAT, transfected NIH-3T3 cells, coexpressed Gq/i5; for Alpha 2B (IA) intrinsic activity: ratio of maximal effect to that of standard full agonist brimonidine. On the procedure: (§1) The RSAT assay measures a receptor-mediated loss of contact inhibition that results in selective proliferation of receptor-containing cells in a mixed population of confluent cells. The increase in cell number is assessed with an appropriate transfected marker gene such as […]-galactosidase, the activity of which can be easily measured in a 96-well format. Receptors that activate the G protein, Gq, elicit this response. Alpha2 receptors, which normally couple to Gi, activate the RSAT response when coexpressed with a hybrid Gq protein that has a Gi receptor recognition domain, called Gq/i5.
(§2) NIH-3T3 cells are plated at a density of 2×10^6 cells in 15 cm dishes and maintained in Dulbecco's modified Eagle's medium supplemented with 10% calf serum. One day later, cells are cotransfected by calcium phosphate precipitation with mammalian expression plasmids encoding p-SV-β-galactosidase (5-10 μg), receptor (1-2 μg) and G protein (1-2 μg). 40 μg salmon sperm DNA may also be included in the transfection mixture. Fresh media is added on the following day and 1-2 days later, cells are harvested and frozen in 50 assay aliquots. Cells are thawed and 100 μl added to 100 μl aliquots of various concentrations of drugs in triplicate in 96-well dishes. Incubations continue 72-96 hr at 37° C. After washing with phosphate-buffered saline, β-galactosidase enzyme activity is determined by adding 200 μl of the chromogenic substrate (consisting of 3.5 mM o-nitrophenyl-β-D-galactopyranoside and 0.5% nonidet P-40 in phosphate buffered saline), incubating overnight at 30° C. and measuring optical density at 420 nm. The absorbance is a measure of enzyme activity, which depends on cell number and reflects a receptor-mediated cell proliferation. The efficacy or intrinsic activity is calculated as a ratio of the maximal effect of the drug to the maximal effect of a standard full agonist for each receptor subtype. Brimonidine, also called UK14304, the chemical structure of which is shown below, is used as the standard agonist for the alpha2A, alpha2B and alpha2C receptors. The EC50 is the concentration at which the drug effect is half of its maximal effect.
(§3) The results of the RSAT assay with several exemplary compounds of the invention are disclosed in Table 1 above together with the chemical formulas of these exemplary compounds. EC50 values are nanomolar. NA stands for “not active” at concentrations less than 10 micromolar. IA stands for “intrinsic activity.”

Another experiment has as its target T2, Alpha 1A (Homo sapiens, UniProt P35348).
T2 construct: expressed in transfected cells; host or cells: NIH-3T3
T2 sequence (P35348 1-466): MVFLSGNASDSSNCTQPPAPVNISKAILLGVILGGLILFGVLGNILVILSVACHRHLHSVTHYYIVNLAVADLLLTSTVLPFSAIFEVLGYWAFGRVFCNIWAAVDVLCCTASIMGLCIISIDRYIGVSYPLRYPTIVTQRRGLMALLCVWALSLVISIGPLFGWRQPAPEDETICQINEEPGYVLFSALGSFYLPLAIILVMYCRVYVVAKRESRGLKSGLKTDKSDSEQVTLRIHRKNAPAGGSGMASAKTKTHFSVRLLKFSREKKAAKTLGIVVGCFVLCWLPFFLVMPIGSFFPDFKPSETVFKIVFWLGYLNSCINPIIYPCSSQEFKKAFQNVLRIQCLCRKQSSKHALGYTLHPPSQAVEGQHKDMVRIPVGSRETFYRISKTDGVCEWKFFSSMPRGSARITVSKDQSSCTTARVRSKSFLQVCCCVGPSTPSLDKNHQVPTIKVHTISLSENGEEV
Nature of the experiment: RSAT assay, Alpha 1A receptor. The experiment is classed as cell-based. Particulars: for EC50: RSAT, transfected NIH-3T3 cells; for Alpha 1A (IA) intrinsic activity: ratio of maximal effect of drug to maximal effect of standard full agonist. As for the experimental part: as §1, §2, §3

A further experiment has as its target T3, Alpha 2C (Homo sapiens, UniProt P18825).
T3 construct: expressed in transfected cells; host or cells: NIH-3T3
T3 sequence (P18825 1-462): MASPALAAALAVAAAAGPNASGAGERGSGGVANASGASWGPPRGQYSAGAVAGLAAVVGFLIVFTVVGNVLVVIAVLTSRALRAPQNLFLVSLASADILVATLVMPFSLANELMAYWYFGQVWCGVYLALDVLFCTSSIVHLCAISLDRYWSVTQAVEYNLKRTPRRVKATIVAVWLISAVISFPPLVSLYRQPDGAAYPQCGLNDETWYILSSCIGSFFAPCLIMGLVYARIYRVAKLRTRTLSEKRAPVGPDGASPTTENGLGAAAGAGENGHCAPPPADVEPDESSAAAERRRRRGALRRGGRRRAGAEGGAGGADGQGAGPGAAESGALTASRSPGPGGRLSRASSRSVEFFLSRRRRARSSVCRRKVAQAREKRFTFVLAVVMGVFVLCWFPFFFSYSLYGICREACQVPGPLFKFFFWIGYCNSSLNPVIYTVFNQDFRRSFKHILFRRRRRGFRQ
In words: RSAT assay, Alpha 2C receptor. The experiment is classed as cell-based. Particulars: for EC50: RSAT, transfected NIH-3T3 cells, coexpressed Gq/i5; for Alpha 2C (IA) intrinsic activity: ratio of maximal effect to that of standard full agonist brimonidine. On the procedure: as §1, §2, §3

Another experiment concerns the target T4, Alpha 2A (Homo sapiens, UniProt P08913).
T4 construct: expressed in transfected cells; host or cells: NIH-3T3
T4 sequence (P08913 1-465): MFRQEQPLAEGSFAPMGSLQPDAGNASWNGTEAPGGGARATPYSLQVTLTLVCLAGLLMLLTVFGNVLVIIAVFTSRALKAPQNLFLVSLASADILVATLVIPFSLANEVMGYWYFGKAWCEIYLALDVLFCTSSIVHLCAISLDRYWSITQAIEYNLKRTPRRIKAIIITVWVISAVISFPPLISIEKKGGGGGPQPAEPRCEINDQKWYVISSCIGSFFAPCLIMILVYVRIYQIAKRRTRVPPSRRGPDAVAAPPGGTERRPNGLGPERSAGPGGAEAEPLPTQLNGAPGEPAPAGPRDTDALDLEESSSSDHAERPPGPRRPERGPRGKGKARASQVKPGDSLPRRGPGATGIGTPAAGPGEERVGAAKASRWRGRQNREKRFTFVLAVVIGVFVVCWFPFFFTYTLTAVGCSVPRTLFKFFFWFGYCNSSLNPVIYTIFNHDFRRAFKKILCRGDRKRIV
In words: RSAT assay, Alpha 2A receptor. The experiment is classed as cell-based. Conditions: transfected NIH-3T3 cells, coexpressed Gq/i5. As for the experimental part:
as §1
NIH-3T3 cells are plated at a density of 2×10^6 cells in 15 cm dishes and maintained in Dulbecco's modified Eagle's medium supplemented with 10% calf serum. […] After washing with phosphate-buffered saline, β-galactosidase enzyme activity is determined by adding 200 μl of the chromogenic substrate (consisting of 3.5 mM o-nitrophenyl-β-D-galactopyranoside and 0.5% nonidet P-40 in phosphate buffered saline), incubating overnight at 30° C. and measuring optical density at 420 nm. The absorbance is a measure of enzyme activity, which depends on cell number and reflects a receptor-mediated cell proliferation. The efficacy or intrinsic activity is calculated as a ratio of the maximal effect of the drug to the maximal effect of a standard full agonist for each receptor subtype. […]

Structures are written as SMILES.

Turning to `Cc1[nH]cnc1CC1CCc2cccnc2C1` (single isomer, unassigned; (+)) [Compound 8, (+)-7-(5-methyl-1H-imidazol-4-ylmethyl)-5,6,7,8-tetrahydro-quinoline], in experiment [1], the “activity in an in vitro assay” value was “active”.
For orientation: EC50 means the concentration that produces a half-maximal response. Higher therefore signals a need for much substance. For `Cc1[nH]cnc1CC1CCc2cccnc2C1` (stereo not shown) [drawing 15], at Alpha 2B, the concentration giving a half-maximal response (EC50) is 0.057 µM and the “Alpha 2B (IA) intrinsic activity” value came out at 0.32. Also, at Alpha 1A, the response was half-maximal at 3.34 µM (EC50) and the “Alpha 1A (IA) intrinsic activity” value was determined as 0.66. On Alpha 2C, it took 0.207 µM to reach a half-maximal effect (EC50) and the “Alpha 2C (IA) intrinsic activity” value is 0.63. Further, the EC50 at Alpha 2A is > 10 µM.
Take `Cc1[nH]cnc1CC1CCc2cccnc2C1` (single isomer, unassigned; (-)) [Compound 7, (−)-7-(5-methyl-1H-imidazol-4-ylmethyl)-5,6,7,8-tetrahydro-quinoline]: the “activity in an in vitro assay” value in experiment [1] is “inactive”.
For the molecule `Cc1[nH]cnc1CC1CCc2cccnc2C1` (stereo not shown) [drawing 16], on Alpha 2B, the 50% effective concentration (EC50) was 0.037 µM and the “Alpha 2B (IA) intrinsic activity” value was 0.7. Further, on Alpha 1A, the 50% effective concentration (EC50) stood at 0.876 µM and the “Alpha 1A (IA) intrinsic activity” value was determined as 0.66. Moreover, at Alpha 2C, the EC50 was 0.366 µM and the “Alpha 2C (IA) intrinsic activity” value is 0.47. Further, the 50% effective concentration (EC50) at Alpha 2A was > 10 µM.
